Test results as given in PubChem BioAssay (NCI).
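The compound was tested at five concentrations on cells cultured in 96-well plates, with a 48-hour exposure period. At the TGI there is no net growth.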

Legend:
Test in all cases: NCI tumour cell line growth inhibition, 48 h
KM20L2 colon = tested on: KM20L2 colon
NCI-H226 lung = tested on: NCI-H226 lung
COLO 205 colon = tested on: COLO 205 colon
M19-MEL melanoma = tested on: M19-MEL melanoma
786-0 renal = tested on: 786-0 renal
U251 CNS = tested on: U251 CNS
A549 NSCLC = tested on: A549 NSCLC
TK-10 renal = tested on: TK-10 renal
NCI-H23 lung = tested on: NCI-H23 lung
EKVX NSCLC = tested on: EKVX NSCLC
SF-295 CNS = tested on: SF-295 CNS
OVCAR-8 ovarian = tested on: OVCAR-8 ovarian
HOP-62 NSCLC = tested on: HOP-62 NSCLC
M14 melanoma = tested on: M14 melanoma
UACC-257 melanoma = tested on: UACC-257 melanoma
HT29 colon = tested on: HT29 colon
A498 renal = tested on: A498 renal
XF 498 CNS = tested on: XF 498 CNS
SW-620 colon = tested on: SW-620 colon
HOP-92 NSCLC = tested on: HOP-92 NSCLC
DMS 273 small cell lung = tested on: DMS 273 small cell lung
CAKI-1 renal = tested on: CAKI-1 renal
SF-539 CNS = tested on: SF-539 CNS
HCT-15 colon = tested on: HCT-15 colon
LOX IMVI melanoma = tested on: LOX IMVI melanoma
SK-MEL-28 melanoma = tested on: SK-MEL-28 melanoma
SNB-75 CNS = tested on: SNB-75 CNS
IGROV1 ovarian = tested on: IGROV1 ovarian
CCRF-CEM leukemia = tested on: CCRF-CEM leukemia
OVCAR-5 ovarian = tested on: OVCAR-5 ovarian
RPMI-8226 leukemia = tested on: RPMI-8226 leukemia
HCC-2998 colon = tested on: HCC-2998 colon
SN12C renal = tested on: SN12C renal
SR leukemia = tested on: SR leukemia
NCI-H522 lung = tested on: NCI-H522 lung
OVCAR-4 ovarian = tested on: OVCAR-4 ovarian
KM12 colon = tested on: KM12 colon
SNB-78 CNS = tested on: SNB-78 CNS
MOLT-4 leukemia = tested on: MOLT-4 leukemia
SK-MEL-2 melanoma = tested on: SK-MEL-2 melanoma
K-562 leukemia = tested on: K-562 leukemia
HOP-18 NSCLC = tested on: HOP-18 NSCLC
SF-268 CNS = tested on: SF-268 CNS
LXFL 529 NSCLC = tested on: LXFL 529 NSCLC
UACC-62 melanoma = tested on: UACC-62 melanoma
ACHN renal = tested on: ACHN renal
DLD-1 colon = tested on: DLD-1 colon
NCI-H460 lung = tested on: NCI-H460 lung
SK-OV-3 ovarian = tested on: SK-OV-3 ovarian
HL-60(TB) leukemia = tested on: HL-60(TB) leukemia
SK-MEL-5 melanoma = tested on: SK-MEL-5 melanoma
UO-31 renal = tested on: UO-31 renal
HCT-116 colon = tested on: HCT-116 colon
SNB-19 CNS = tested on: SNB-19 CNS
OVCAR-3 ovarian = tested on: OVCAR-3 ovarian
MALME-3M melanoma = tested on: MALME-3M melanoma
DMS 114 small cell lung = tested on: DMS 114 small cell lung
RXF 393 renal = tested on: RXF 393 renal

Measured: TGI

CCN1CCC(O)(c2ccc(C)cc2)C(C(=O)c2ccc(C)cc2)C1 (centres undefined)
3.44 µM: NCI-H522 lung
32.1 µM: ACHN renal
> 58.9 µM: IGROV1 ovarian
41.5 µM: RPMI-8226 leukemia
33.4 µM: DLD-1 colon
31.8 µM: SW-620 colon
26.6 µM: 786-0 renal
> 57.2 µM: SK-MEL-5 melanoma
50.9 µM: SR leukemia
35.1 µM: MALME-3M melanoma
33.1 µM: XF 498 CNS
> 57.8 µM: M14 melanoma
50.1 µM: OVCAR-4 ovarian
56 µM: SK-MEL-28 melanoma | CCRF-CEM leukemia
49.9 µM: OVCAR-8 ovarian
36.1 µM: EKVX NSCLC
> 61 µM: TK-10 renal
48.8 µM: COLO 205 colon
> 71.5 µM: MOLT-4 leukemia
36.5 µM: HCT-15 colon
> 57.5 µM: UO-31 renal
> 71.8 µM: SF-268 CNS
17.7 µM: KM20L2 colon
> 81.1 µM: NCI-H460 lung
> 91.9 µM: KM12 colon
> 59.1 µM: SF-539 CNS
> 76.8 µM: SNB-78 CNS
> 55.1 µM: NCI-H23 lung
31.3 µM: CAKI-1 renal | LXFL 529 NSCLC
30.3 µM: HCT-116 colon
36.9 µM: HT29 colon | HOP-18 NSCLC
> 61.2 µM: M19-MEL melanoma | LOX IMVI melanoma
47.4 µM: OVCAR-5 ovarian
19.8 µM: SN12C renal
34.7 µM: DMS 273 small cell lung
40.1 µM: HOP-92 NSCLC | OVCAR-3 ovarian
> 100 µM: NCI-H226 lung | A549 NSCLC | SF-295 CNS | HOP-62 NSCLC | A498 renal | SNB-75 CNS | HCC-2998 colon | SK-MEL-2 melanoma | K-562 leukemia | SK-OV-3 ovarian | SNB-19 CNS
47.7 µM: HL-60(TB) leukemia
> 83.9 µM: U251 CNS
> 60 µM: UACC-62 melanoma
36.6 µM: UACC-257 melanoma

CCOC(=O)/C(O)=C(/c1n[nH]c(=O)c2ccccc12)[N+](=O)[O-]
> 100 µM: KM20L2 colon | DMS 114 small cell lung | NCI-H226 lung | COLO 205 colon | M19-MEL melanoma | 786-0 renal | U251 CNS | A549 NSCLC | TK-10 renal | NCI-H23 lung | EKVX NSCLC | SF-295 CNS | OVCAR-8 ovarian | HOP-62 NSCLC | M14 melanoma | UACC-257 melanoma | HT29 colon | A498 renal | SW-620 colon | HOP-92 NSCLC | DMS 273 small cell lung | RXF 393 renal | SF-539 CNS | HCT-15 colon | LOX IMVI melanoma | SK-MEL-28 melanoma | SNB-75 CNS | IGROV1 ovarian | CCRF-CEM leukemia | OVCAR-5 ovarian | RPMI-8226 leukemia | HCC-2998 colon | SN12C renal | NCI-H522 lung | OVCAR-4 ovarian | KM12 colon | SNB-78 CNS | MOLT-4 leukemia | SK-MEL-2 melanoma | K-562 leukemia | HOP-18 NSCLC | SF-268 CNS | LXFL 529 NSCLC | UACC-62 melanoma | ACHN renal | DLD-1 colon | NCI-H460 lung | SK-OV-3 ovarian | HL-60(TB) leukemia | SK-MEL-5 melanoma | UO-31 renal | HCT-116 colon | SNB-19 CNS | OVCAR-3 ovarian | MALME-3M melanoma

CNC(=O)CN(CC(=O)NC)C(=O)NC
> 100 µM: KM20L2 colon | NCI-H226 lung | COLO 205 colon | M19-MEL melanoma | 786-0 renal | U251 CNS | A549 NSCLC | TK-10 renal | NCI-H23 lung | EKVX NSCLC | SF-295 CNS | OVCAR-8 ovarian | HOP-62 NSCLC | M14 melanoma | UACC-257 melanoma | HT29 colon | A498 renal | XF 498 CNS | SW-620 colon | HOP-92 NSCLC | DMS 273 small cell lung | CAKI-1 renal | RXF 393 renal | SF-539 CNS | HCT-15 colon | LOX IMVI melanoma | SK-MEL-28 melanoma | SNB-75 CNS | IGROV1 ovarian | CCRF-CEM leukemia | OVCAR-5 ovarian | RPMI-8226 leukemia | HCC-2998 colon | SR leukemia | NCI-H522 lung | OVCAR-4 ovarian | KM12 colon | SNB-78 CNS | MOLT-4 leukemia | SK-MEL-2 melanoma | K-562 leukemia | SF-268 CNS | LXFL 529 NSCLC | UACC-62 melanoma | ACHN renal | DLD-1 colon | SK-OV-3 ovarian | HL-60(TB) leukemia | SK-MEL-5 melanoma | UO-31 renal | SNB-19 CNS | OVCAR-3 ovarian | MALME-3M melanoma

C=C(C)C1CC=C(C)[C@](O)(C2(O)C[C@H](C(=C)C)CC=C2C)C1 (some centres undefined)
> 100 µM: KM20L2 colon | DMS 114 small cell lung | M19-MEL melanoma | U251 CNS | A549 NSCLC | TK-10 renal | NCI-H23 lung | EKVX NSCLC | SF-295 CNS | OVCAR-8 ovarian | HOP-62 NSCLC | M14 melanoma | UACC-257 melanoma | HT29 colon | A498 renal | HOP-92 NSCLC | DMS 273 small cell lung | RXF 393 renal | SK-MEL-28 melanoma | IGROV1 ovarian | CCRF-CEM leukemia | OVCAR-5 ovarian | SR leukemia | NCI-H522 lung | KM12 colon | SNB-78 CNS | MOLT-4 leukemia | UACC-62 melanoma | ACHN renal | NCI-H460 lung | SK-OV-3 ovarian | HL-60(TB) leukemia | UO-31 renal | HCT-116 colon | SNB-19 CNS
